# Data: patent US4812472A, “Isoxazole compounds and pharmaceutical compositions containing them for treatment and prophylaxis of retroviruses diseases” (Chemie Linz Akteingesellschaft, priority 1985, dated 1989)
# Experiments:
# Rhino type 3 = experiment: Virus inhibition test (MIC); assay type: cell-based, rhinovirus type 3; details: Enterovirus, in vitro, read-out: Minimum inhibitory conc. (MIC)
# Rhino type 16 = experiment: Virus inhibition test (MIC); assay type: cell-based, rhinovirus type 16; details: Enterovirus, in vitro, read-out: Minimum inhibitory conc. (MIC)
# Rhino type 26 = experiment: Virus inhibition test (MIC); assay type: cell-based, rhinovirus type 26; details: Enterovirus, in vitro, read-out: Minimum inhibitory conc. (MIC)
# Rhino type 32 = experiment: Virus inhibition test (MIC); assay type: cell-based, rhinovirus type 32; details: Enterovirus, in vitro, read-out: Minimum inhibitory conc. (MIC)
# Rhino type 37 = experiment: Virus inhibition test (MIC); assay type: cell-based, rhinovirus type 37; details: Enterovirus, in vitro, read-out: Minimum inhibitory conc. (MIC)
# Rhino type 48 = experiment: Virus inhibition test (MIC); assay type: cell-based, rhinovirus type 48; details: Enterovirus, in vitro, read-out: Minimum inhibitory conc. (MIC)
# Rhino type 55 = experiment: Virus inhibition test (MIC); assay type: cell-based, rhinovirus type 55; details: Enterovirus, in vitro, read-out: Minimum inhibitory conc. (MIC)
# Echo type B-9 = experiment: Virus inhibition test (MIC); assay type: cell-based, echovirus type B-9; details: Echovirus, in vitro, read-out: Minimum inhibitory conc. (MIC)
# Polio type 2 = experiment: microbe, parasite or virus in culture; assay type: cell-based, poliovirus type 2; details: Enterovirus C, read-out: Minimum inhibitory conc. (MIC)
# [1] = Toxicity control, minimum toxic concentration (MTC); assay type: cell-based; details: cell density still lower than in the cell control
# HIV (HTLV-IIIB) = experiment: microbe, parasite or virus in culture; assay type: cell-based
# ATH8 cell viability = details: human, ath8 cells
Structure (SMILES),MIC (Rhino type 3) [µg/mL],MIC (Rhino type 16) [µg/mL],MIC (Rhino type 26) [µg/mL],MIC (Rhino type 32) [µg/mL],MIC (Rhino type 37) [µg/mL],MIC (Rhino type 48) [µg/mL],MIC (Rhino type 55) [µg/mL],MIC (Echo type B-9) [µg/mL],MIC (Polio type 2) [µg/mL],MCC [1] [µg/mL],inhibitory effect on HIV-induced cytopathogenicity in ATH8 cells (HIV (HTLV-IIIB); ATH8 cells),"ID50/MIC50 (in vitro therapeutic index) (HIV (HTLV-IIIB); ATH8 cells, day 6-7 after virus inoculation)","ID50/MIC50 (in vitro therapeutic index) (HIV (HTLV-IIIB); ATH8 cells, day 10 after virus inoculation)","EC50 (HIV (HTLV-IIIB); Human immunodeficiency virus 1, IIIB, ATH-8, 168 h, read-out: MIC50) [nM]",CC50 (ATH8 cell viability) [µM],CC50 at 240 h (ATH8 cell viability) [µM]
"Cc1cc(CCCCCCCOc2ccc(C3=NCCO3)s2)on1 [Compound A, 5-(7-(5-(4,5-dihydro-2-oxazolyl)-2-thienyl)-oxyheptyl)-3-methyl-isoxazole]",0.03,0.3,0.3,1,0.03,0.1,0.3,0.03,0.1,10,marked inhibitory effect,175,175,200,35,35
"Cc1cc(CCCCCCCOc2csc(C3=NCCO3)c2)on1 [Compound B, 5-(7-(2-(4,5-dihydro-2-oxazolyl)-4-thienyl)oxyheptyl)-3-methyl-isoxazole]",0.1,1,1,3,0.03,1,0.3,1,1,10,–,–,–,–,–,–
